Assay results taken from patent EP0076089A2, “Azabicycloalkane derivatives, process for their preparation, and a pharmaceutical composition containing them” (BEECHAM GROUP PLC, priority 1981, dated 1983).
Where a name gives a salt, the structure may show the parent alone.

Test system: spontaneous climbing behaviour of mice
Assay: Spontaneous climbing behaviour of mice (method of Martres et al.)
Type: in vivo
Settings: 0.2mg/kg subcutaneous, climbs counted over a 10 minute period commencing 3 minutes after administration, percentage change from control group
Procedure: It is believed that this inhibitory effect is mediated by stimulation of presynaptic dopaminergic autoreceptors, i.e. receptors whose stimulation results in inhibition of dopamine synthesis and electrical activity of dopamine neurones. Spontaneous climbing behaviour was assessed by the method of M.P. Martres et al., Brain Research, 1977, 136, 319. This involves the monitoring of the frequency of climbing behaviour of mice in inverted food hoppers over a 10 minute period commencing 3 minutes after subcutaneous administration of compound. A climb is defined as the mouse having all four feet off the ground. Experiments are carried out with a minimum of 5 groups of 10 mice, one group acting as control.

Row | SMILES | % Inhibition of Spontaneous Climbing at 0.2mg/kg (hydrobromide, 0.2 mg/kg) [%] | % Inhibition of Spontaneous Climbing at 0.2mg/kg [%]
1 | Oc1cccc(C2CCC3CCC2N3Cc2ccccc2)c1 (racemic) [Compound 13, (±)-(2-Exo)-8-Benzyl-2-(3'-hydroxyphenyl)-8-azabicyclo(3.2.1)octane hydrobromide] | 24 | 
2 | Oc1cccc(C2CCC3CCC2N3Cc2ccccc2)c1 (racemic) [Compound 14, (±)-(2-endo)-8-Benzyl-2-(3'-hydroxyphenyl)-8-azabicyclo(3.2.1)octane hydrobromide] | 38 | 
3 | CCCN1C2CCC(c3cccc(O)c3)C1CC2 (racemic) [Compound 16, 2-endo-8-n-propyl-2-(3'-hydroxyphenyl)-8-azabicyclo[3.2.7]octane] |  | 49
4 | Oc1cccc(C2CCC3CCC2N3CCc2ccccc2)c1 (racemic) [Compound 20, 2-endo-8-phenethyl-2-(3'-hydroxyphenyl)-8-azabicyclo[3.2.1] octane] |  | 12
